Data set [1] has as its system murine leukemia cell line P388/0. The data set can be described thus: Murine Leukemia Model (In vivo P388). Further details: species or system mouse. The conditions noted are these: ip, days 1-5; for Survival Rate %: survival at 40 days. On the procedure: (§1) In this Example, the in vivo activity of some of the compounds prepared in accordance with the present invention was assessed using the Murine Leukemia Model and the Colorectal Xenograft model.
The compounds shown in the Table below were screened for in vivo activity against the murine leukemia cell line P388/0 (mouse, lymphoid neoplasm). The cell line was obtained from Southern Research Institute (Birmingham, Ala.) and grown in RPMI 1640 supplemented with 10% FBS. P388/0 cells were subcultured two times per week and log phase cultures (viability ≥95%/o) were used for all in vivo experiments. Female CD2F1 mice (Taconic Farms, Germantown, N.Y.) at 7-8 weeks of age were used for study. Following one week of acclimation, mice were implanted ip with P388/0 cells (5×10^5 cells/mouse) at designated day 0 (zero). The mice were randomly assigned to experimental groups (10-20 per group). The groups included Control groups and several which received one of the drugs or prodrugs. The mice were then dosed (500 μL, ip) for 5 consecutive days (days 1-5). Control groups received vehicle (intralipid or water). The mice were monitored for up to 40 days, and the treatment was evaluated and expressed as the percentage survival at 40 days.

In data set [2] the test system is P388/0 (murine lymphoid neoplasm) cells. The data set can be described thus: cells. The data set is classed as cell-based. The note with it: read-out: IC50 (nM) P388. On the procedure: (§2) In this example, a series of in vitro assays were conducted to determine the IC50 for unmodified camptothecin, unmodified paclitaxel and several of the high molecular weight prodrugs prepared as set forth above.
(§3) All compounds were independently tested against one or more of the P388/0 (murine lymphoid neoplasm, Southern Research Institute), HT-29 (human colon carcinoma) and A549 (human lung adeno carcinoma) cell lines.
(§4) The P388/0 cells were grown in RPMI 1640 medium (Whittaker Bioproducts, Walkersville, Md.)+10% FBS (Hyclone Inc., Logan Utah). The HT-29 cells were grown in DMEM (GIBCOBRL)+10% FBS (Hyclone, Inc.). The A549 cells were grown in DMEM/F-12 (Biowhitaker)+10% FBS (Heat inactivated). Bioassays were performed in their respective media containing antibiotics and fungizone.
(§5) Camptothecin and paclitaxel were dissolved in DMSO and diluted to the appropriate concentration in culture media. The PEG-Camptothecin and PEG-paclitaxel prodrugs were dissolved in water and diluted to the appropriate concentrations in culture media.
(§6) The assays were performed in duplicate in 96-well microtiter cell culture plates. Two fold serial dilution of the compounds were done in the microtiter plates. Cells were detached by incubating with 0.1% Trypsin/Versene at 37°. Trypsin was inactivated by adding the appropriate media for each cell line containing 10% FBS. To each well of the microtiter plates, 10,000 cells were added. After three days, cell growth was measured by addition of a metabolic indicator dye, Alamar Blue, according to the manufacturer's protocol. The IC50 value for each test compound was determined and compared to the IC50 for the appropriate reference compound.
P-388 Murine leukemia cell line

Data set [3] relates to one or more of the P388/0, HT-29 and A549 cell lines. Put plainly: cells. The class given is cell-based. On the procedure: as §2, §3, §4, §5, §6
The IC50 values for some of the compounds formed in examples 47-53 were determined using the same process as that described above with regard to example 45 and compared to native camptothecin.

Data set [4] in a line: Colorectal Xenograft (In vivo HT-29). Further details: species or system human tumor in nu/nu mice. The conditions noted are these: mouse, in vivo, ip; week 5 (end of treatment); total active dose 62.5 mg/kg. On the procedure:
as §1
(§7) Female nu/nu mice (Harlan Sprague Dawley, Madison, Wis.), 18-24 g and 10-14 weeks old, at onset of treatment were used. The solid tumor HT-29 (human, colon adenocarcinoma) was obtained from the ATCC (HTB 38) and grown in DMEM supplemented with 10% FBS. Cells were subcultured once a week and for in vivo experiments viabilities were ≥90%. Mice were housed in microisolator filtration racks, and maintained with filtered acidified water and sterile laboratory chow ad libitum. Following one week of acclimation, tumors were established by injecting 1×10^6 harvested HT-29 tumor cells in a single subcutaneous site, on the flank of mice in the left axillary region. The tumor injection site was observed twice weekly and measured once palpable. The tumor volume for each mouse was determined by measuring two dimensions with calipers and calculated using the formula: tumor volume=(length×width^2)/2. When tumors reached the average volume of 300 mm^3, the mice were divided into their experimental groups. The non-Control groups received Camptothecin 2.5 mg/kg/day, the prodrugs being dosed on the basis of camptothecin content. The mice were sorted to evenly distribute tumor size, grouped into 5 mice/cage, and ear punched for permanent identification. Mice receiving drugs were treated i.p. 5 times a week, Monday through Friday for 5 weeks with 500 μL of test article. Mouse weight and tumor size were measured at the beginning of study and weekly through week 7. The overall growth of tumors was expressed as the percent change in tumor size calculated by subtracting mean initial tumor volume from mean tumor volume at the end of the treatment and dividing by mean initial tumor volume.

Data set [5] has as its system solid tumor HT-29 (human, colon adenocarcinoma). Put plainly: Colorectal Xenograft (In vivo HT-29). Further details: species or system human tumor in nu/nu mice. The conditions noted are these: total active dose 62.5 mg/kg, i.p. On the procedure:
as §1, §7

Data set [6] concerns HT-29 (human colon carcinoma) cells. The data set can be described thus: cells. The class given is cell-based. The conditions noted are these: read-out: IC50 (nM) HT-29. On the procedure:
as §2, §3, §4, §5, §6
HT29 Human colon carcinoma cell line

[7] abbreviates: cell line not stated, same process as example 45, read-out: IC50.

Read-outs that look alike come from different tables or passages of the source.

One may read the IC50 as the midpoint of a concentration-inhibition curve. The term mortality denotes the share of the test organisms that died. Low values mean more survivors, high ones fewer survivors. On to `CC[C@@]1(O)C(=O)OCc2c1cc1n(c2=O)Cc2cc3ccccc3nc2-1` [Camptothecin, reference compound], for which, in data set [1] (total active dose 16 mg/kg), the “Survival Rate %” value worked out at 80%. Further, the IC50 in data set [2] (Mus musculus, P388, 72 h) is 5 nM; in data set [3] it was 7 nM; in data set [6] (Homo sapiens, HT-29, 72 h), 21 nM. Besides, in data set [4], the mortality at 840 h amounted to 50%. Besides, the “Body weight change (%)” value in data set [5] (week 5 (end of treatment)) and in data set [5] (week 7 (2 week post treatment)) was -3% in each case. For the same compound, the “Tumor growth (%)” value in data set [5] (week 5 (end of treatment)) is -20%; in data set [5] (week 7 (2 week post treatment)) it was 62%.

In the case of `CC[C@@]1(OC(=O)n2ccnc2)C(=O)OCc2c1cc1n(c2=O)Cc2cc3ccccc3nc2-1` [Compound 54, camptothecin-20-O-carbonylimidazolyl carbonate], the concentration for half-maximal inhibition (IC50) in data set [3] (read-out: IC50) worked out at 69 nM.

As to `CC[C@@]1(OC(=O)Oc2ccc([N+](=O)[O-])cc2)C(=O)OCc2c1cc1n(c2=O)Cc2cc3ccccc3nc2-1` [Compound 55, camptothecin-20-O-paranitrophenyl carbonate], the IC50 in data set [3] (setting [7]) came to 365 nM.

With `CC[C@@]1(OC(=O)ON2C(=O)CCC2=O)C(=O)OCc2c1cc1n(c2=O)Cc2cc3ccccc3nc2-1` [Compound 56, camptothecin-20-O-N-hydroxysuccinimidyl carbonate], in data set [3] (setting [7]), the IC50 is 1030 nM.

Regarding `CC[C@@]1(OC(=O)OC)C(=O)OCc2c1cc1n(c2=O)Cc2cc3ccccc3nc2-1` [Compound 59, camptothecin-20-O-methyl carbonate], the half-maximal inhibitory concentration (IC50) in data set [3] (setting [7]) was found to be 11 nM.

Take `CC[C@@]1(OC(=O)OCC(C)C)C(=O)OCc2c1cc1n(c2=O)Cc2cc3ccccc3nc2-1` [Compound 60, camptothecin-20-O-isobutyryl carbonate]: the IC50 in data set [3] (read-out: IC50) was determined as 29 nM.

Regarding `CC[C@@]1(O)C(=O)OCc2c1cc1n(c2=O)Cc2cc3c(CN(C)C)c(O)ccc3nc2-1` [Topotecan, reference compound], the IC50 in data set [2] (Mus musculus, 72 h, P388 murine leukemia cell line, three days) came to 29 nM; in data set [6] (72 h, HT-29 human colon carcinoma cell line, three days), 99 nM.

Turning to “Bis-Camptothecin-N-Acetyl-PEG40kDa -20-O-Glycinate [Compound 37b]”, the IC50 in data set [2] turned out to be 49 nM; in data set [6], 137 nM.

With “Bis-Camptothecin-N-PEG40kDa -20-O-Glycinate [Compound 37a]”, the 50% inhibitory concentration (IC50) in data set [2] was 24 nM; in data set [6] it was 110 nM.

For “Camptothecin-20-O-Glycinate PEG40kDa -Amide Derivative [Compound 48]”, the “Survival Rate %” value in data set [1] (total active dose 16 mg/kg) is 80%. The “Tumor growth (%)” value in data set [5] (week 5 (end of treatment)) is listed as -80%; in data set [5] (week 7 (2 week post treatment)), -96%.

Take “Camptothecin-20-O-Glycinate PEG40kDa Carbamate Derivative [Compound 49]”: the 50% inhibitory concentration (IC50) in data set [2] is 33 nM; in data set [6], 40 nM.

As for “Camptothecin-20-O-ester of 2-PEG40k N-methylcarbamoyl Acetic Acid [Compound 5b]”, the values for the half-inhibitory concentration (IC50) in data set [2] and in data set [6] were 18 nM and 153 nM, respectively.

For “Camptothecin-20-O-ester of 2-PEG40kDa Carbamoylacetic Acid [Compound 5a]”, the IC50 in data set [2] (P388 murine leukemia cell line, three days) was determined as 7 nM; in data set [6] (HT-29 human colon carcinoma cell line, three days), 30 nM.

In the case of “Camptothecin-20-O-ester of PEG20kDa diacid”, in data set [1] (total active dose 11.4 mg/kg), the “50% survival” value turned out to be 21 days and the “Survival Rate %” value was found to be 10%.

In the case of “camptothecin-20-O-PEG5kDa carbamate [Compound 57]”, in data set [3] (setting [7]), the IC50 was determined as 912 nM.

Values taken from patent US6127355A (priority 1999, dated 2000).
